These results are taken from patent publication US9193721B2, “Fused derivatives as PI3Kδ inhibitors” (Incyte Holdings Corporation, priority 2010, dated 2015).

The target in one assay is T1, PI3Kδ (p110δ/p85α) (Homo sapiens, UniProt O00329).
T1 construct: purchased Millipore (Bedford, Mass.)
The assay can be described thus: PI3Kδ scintillation proximity assay (assay A). The class given is biochemical. The note with it: 20 μM PIP2, 20 μM ATP, 4 nM PI3Kδ, 210 minutes, room temperature. The protocol:
PI3Kδ Scintillation Proximity Assay
[γ-33P] ATP (10 mCi/mL) was purchased from Perkin-Elmer (Waltham, Mass.). […] PI3Kδ (p110δ/p85α) was purchased from Millipore (Bedford, Mass.). ATP, MgCl2, DTT, EDTA, MOPS and CHAPS were purchased from Sigma-Aldrich (St. Louis, Mo.). Wheat Germ Agglutinin (WGA) YSi SPA Scintillation Beads was purchased from GE healthcare life sciences (Piscataway, N.J.).
The kinase reaction was conducted in polystyrene 384-well matrix white plate from Thermo Fisher Scientific in a final volume of 25 μL. Inhibitors were first diluted serially in DMSO and added to the plate wells before the addition of other reaction components. The final concentration of DMSO in the assay was 0.5%. The PI3K assays were carried out at room temperature in 20 mM MOPS, pH 6.7, 10 mM MgCl2, 5 mM DTT and CHAPS 0.03%. Reactions were initiated by the addition of ATP, the final reaction mixture consisted of 20 μM PIP2, 20 μM ATP, 0.2 μCi [γ-^33P] ATP, 4 nM PI3Kδ. Reactions were incubated for 210 minutes and terminated by the addition of 40 μL SPA beads suspended in quench buffer: 150 mM potassium phosphate pH 8.0, 20% glycerol. 25 mM EDTA, 400 μM ATP. The final concentration of SPA beads is 1.0 mg/mL. After the plate sealing, plates were shaken overnight at room temperature and centrifuged at 1800 rpm for 10 minutes, the radioactivity of the product was determined by scintillation counting on Topcount (Perkin-Elmer). IC50 determination was performed by fitting the curve of percent control activity versus the log of the inhibitor concentration using the GraphPad Prism 3.0 software.

The test system of assay [1] is Pfeiffer cell line (diffuse large B cell lymphoma). The experiment in a line: Pfeiffer cell proliferation assay. The format is cell-based. The following applies: Homo sapiens, [3H]-thymidine incorporation after 3-4 days plus 12 hours. The protocol:
Pfeiffer Cell Proliferation Assay
Pfeiffer cell line (diffuse large B cell lymphoma) was purchased from ATCC (Manassas, Va.) and maintained in the culture medium recommended (RPMI and 10% FBS). To measure the anti-proliferation activity of the compounds, the Pfeiffer cells were plated with the culture medium (2×10^3 cells/well/per 200 μl) into 96-well ultra-low binding plates (Corning, Corning, N.Y.), in the presence or absence of a concentration range of test compounds. After 3-4 days, [^3H]-thymidine (1 μCi/well) (PerkinElmer, Boston, Mass.) in PBS was then added to the cell culture for an additional 12 hours before the incorporated radioactivity was separated by filtration with water through GF/B filters (Packard Bioscience, Meridenj, Conn.) and measured by liquid scintillation counting with a TopCount (Packard Bioscience).
Background: Uptake of a labelled nucleoside into DNA is a usual measure of proliferation.

T1 sequence (O00329 whole entry): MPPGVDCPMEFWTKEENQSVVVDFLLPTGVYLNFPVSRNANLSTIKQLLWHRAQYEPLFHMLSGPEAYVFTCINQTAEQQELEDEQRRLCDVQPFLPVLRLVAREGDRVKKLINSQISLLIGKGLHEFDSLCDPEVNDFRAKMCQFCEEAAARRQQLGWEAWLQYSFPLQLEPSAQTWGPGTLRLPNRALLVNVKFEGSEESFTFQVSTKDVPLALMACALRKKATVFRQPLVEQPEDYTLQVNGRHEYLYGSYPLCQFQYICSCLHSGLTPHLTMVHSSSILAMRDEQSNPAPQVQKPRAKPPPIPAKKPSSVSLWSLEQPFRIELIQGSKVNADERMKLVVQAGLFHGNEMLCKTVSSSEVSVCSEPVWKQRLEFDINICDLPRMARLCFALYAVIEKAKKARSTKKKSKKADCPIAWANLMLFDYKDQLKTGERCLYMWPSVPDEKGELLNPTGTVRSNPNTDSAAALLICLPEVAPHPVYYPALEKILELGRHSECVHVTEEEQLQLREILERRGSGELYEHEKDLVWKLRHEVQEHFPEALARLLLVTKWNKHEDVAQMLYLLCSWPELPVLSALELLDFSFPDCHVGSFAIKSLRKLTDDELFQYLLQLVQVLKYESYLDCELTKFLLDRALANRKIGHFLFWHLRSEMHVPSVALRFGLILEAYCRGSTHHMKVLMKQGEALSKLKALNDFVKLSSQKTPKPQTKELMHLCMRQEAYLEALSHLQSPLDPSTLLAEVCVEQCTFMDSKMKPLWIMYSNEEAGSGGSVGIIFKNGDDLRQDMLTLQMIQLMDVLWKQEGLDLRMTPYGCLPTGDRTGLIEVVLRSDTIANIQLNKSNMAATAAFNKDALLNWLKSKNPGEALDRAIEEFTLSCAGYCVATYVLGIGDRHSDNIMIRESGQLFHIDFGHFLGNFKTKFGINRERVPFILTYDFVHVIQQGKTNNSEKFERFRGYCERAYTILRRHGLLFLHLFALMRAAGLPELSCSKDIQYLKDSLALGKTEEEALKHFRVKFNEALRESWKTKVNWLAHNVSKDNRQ
T1 sequence (P27986 whole entry partner): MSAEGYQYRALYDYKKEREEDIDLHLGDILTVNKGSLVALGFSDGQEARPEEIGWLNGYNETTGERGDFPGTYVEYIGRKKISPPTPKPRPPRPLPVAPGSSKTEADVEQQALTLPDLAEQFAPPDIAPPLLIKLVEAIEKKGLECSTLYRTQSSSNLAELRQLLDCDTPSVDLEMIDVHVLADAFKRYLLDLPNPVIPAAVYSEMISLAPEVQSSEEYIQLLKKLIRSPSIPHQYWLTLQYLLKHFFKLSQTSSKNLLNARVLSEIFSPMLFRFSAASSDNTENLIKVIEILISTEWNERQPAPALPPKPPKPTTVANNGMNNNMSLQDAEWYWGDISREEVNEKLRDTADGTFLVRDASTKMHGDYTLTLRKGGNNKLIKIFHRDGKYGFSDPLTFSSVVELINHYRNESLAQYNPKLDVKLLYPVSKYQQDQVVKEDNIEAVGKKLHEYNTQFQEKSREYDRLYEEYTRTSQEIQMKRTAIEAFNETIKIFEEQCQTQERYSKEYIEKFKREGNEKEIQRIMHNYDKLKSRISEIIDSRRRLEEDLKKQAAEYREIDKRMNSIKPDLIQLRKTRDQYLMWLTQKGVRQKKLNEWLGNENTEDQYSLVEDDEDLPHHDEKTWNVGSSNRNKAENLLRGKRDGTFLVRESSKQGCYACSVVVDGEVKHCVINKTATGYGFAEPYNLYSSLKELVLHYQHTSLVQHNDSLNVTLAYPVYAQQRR

One may read the IC50 as the point on the concentration scale where inhibition reaches its midpoint. Turning to `CC(Nc1ncnc2[nH]cnc12)c1cc(Cl)c2ccnn2c1-c1cccc(F)c1` (centres unmarked) [Example 26, N-{1-[4-chloro-7-(3-fluorophenyl)pyrazolo[1,5-a]pyridin-6-yl]ethyl}-9H-purin-6-amine], the IC50 on PI3Kδ (p110δ/p85α) was less than 50 nM; in assay [1], not above 100 nM.

For the compound `CC(Nc1ncnc2[nH]cnc12)c1cc(Cl)c2cncn2c1N1CCN(CC2CCCO2)CC1` (centres unmarked) [Example 16, N-(1-{8-Chloro-5-[4-(tetrahydrofuran-2-ylmethyl)piperazin-1-yl]imidazo[1,5-a]pyridin-6-yl}ethyl)-9H-purin-6-amine], the IC50 at PI3Kδ (p110δ/p85α) is 200 to 750 nM; in assay [1], 100 to 500 nM.

With `CC(=O)N1CCN(c2c(C(C)Nc3ncnc4[nH]cnc34)cc(C)c3cncn23)CC1` (centres unmarked) [Example 32, N-{1-[5-(4-Acetylpiperazin-1-yl)-8-methylimidazo[1,5-a]pyridin-6-yl]ethyl}-9H-purin-6-amine bis(trifluoroacetate)], the IC50 was less than 50 nM against PI3Kδ (p110δ/p85α) and more than 3000 nM in assay [1].

For `CC(Nc1ncnc2[nH]cnc12)c1cc(Cl)c2cncn2c1-c1cccc(F)c1` (single isomer, unassigned) [1, isomer 1], the figures for the IC50 (against PI3Kδ (p110δ/p85α); in assay [1]) were less than 50 nM and not above 100 nM, respectively.

For the compound `CCN(CC)c1c(C(C)Nc2ncnc3[nH]cnc23)cc(Cl)c2cnc(C)n12` (centres unmarked) [Example 25, N-{1-[8-Chloro-5-(diethylamino)-3-methylimidazo[1,5-a]pyridin-6-yl]ethyl}-9H-purin-6-amine], the IC50 at PI3Kδ (p110δ/p85α) is less than 50 nM; in assay [1], 500 to 1000 nM.

As to `CC(Nc1ncnc2[nH]cnc12)c1cc(Cl)c2cncn2c1N1CC[C@H](O)C1` (stereo partly drawn) [Example 24, (3S)-1-{8-Chloro-6-[1-(9H-purin-6-ylamino)ethyl]imidazo[1,5-a]pyridin-5-yl}pyrrolidin-3-ol], the values for the IC50 (at PI3Kδ (p110δ/p85α); in assay [1]) were less than 50 nM and not above 100 nM, respectively.

For the compound `CC(Nc1ncnc2[nH]cnc12)c1cc(Cl)c2cncn2c1N1CCN(CCCC(F)(F)F)CC1` (centres unmarked) [Example 14, N-(1-{8-Chloro-5-[4-(4,4,4-trifluorobutyl)piperazin-1-yl]imidazo[1,5-a]pyridin-6-yl}ethyl)-9H-purin-6-amine], the IC50 was 50 to 200 nM at PI3Kδ (p110δ/p85α) and not above 100 nM in assay [1].

Turning to `CC(Nc1ncnc2[nH]cnc12)c1cc(Cl)c2cncn2c1N1CCN(C(=O)OC(C)(C)C)CC1` (centres unmarked) [Example 6, tert-Butyl 4-{8-chloro-6-[1-(9H-purin-6-ylamino)ethyl]imidazo[1,5-a]pyridin-5-yl}piperazine-1-carboxylate], the IC50 on PI3Kδ (p110δ/p85α) was 50 to 200 nM; in assay [1], more than 3000 nM.

In the case of `COc1cccc(-c2c(C(C)Nc3ncnc4[nH]cnc34)cc(Cl)c3ccnn23)c1` (centres unmarked) [Example 28, N-{1-[4-chloro-7-(3-methoxyphenyl)pyrazolo[1,5-a]pyridin-6-yl]ethyl}-9H-purin-6-amine], the IC50 on PI3Kδ (p110δ/p85α) is less than 50 nM; in assay [1], not above 100 nM.

With `CO[C@H]1CCN(c2c(C(C)Nc3ncnc4[nH]cnc34)cc(Cl)c3cncn23)C1` (stereo partly drawn) [Example 22, N-(1-{8-Chloro-5-[(3S)-3-methoxypyrrolidin-1-yl]imidazo[1,5-a]pyridin-6-yl}ethyl)-9H-purin-6-amine], the figures for the IC50 (against PI3Kδ (p110δ/p85α); in assay [1]) were less than 50 nM and not above 100 nM, respectively.

On to `CC(Nc1ncnc2[nH]cnc12)c1cc(Cl)c2cncn2c1N1CCN(CC2CC2)CC1` (centres unmarked) [Example 17, N-(1-{8-Chloro-5-[4-(cyclopropylmethyl)piperazin-1-yl]imidazo[1,5-a]pyridin-6-yl}ethyl)-9H-purin-6-amine], for which the IC50 fell in the range of 200 to 750 nM at PI3Kδ (p110δ/p85α) and 100 to 500 nM in assay [1].

For the compound `CC(Nc1ncnc2[nH]cnc12)c1cc(Cl)c2cncn2c1-c1cccc(F)c1` (racemic) [Example 1, N-{1-[8-Chloro-5-(3-fluorophenyl)imidazo[1,5-a]pyridin-6-yl]ethyl}-9H-purin-6-amine], the IC50 against PI3Kδ (p110δ/p85α) is less than 50 nM; in assay [1], not above 100 nM.

`CC(Nc1ncnc2[nH]cnc12)c1cc(F)c2ccnn2c1-c1cccc(F)c1` (centres unmarked) [Example 27, N-{1-[4-fluoro-7-(3-fluorophenyl)pyrazolo[1,5-a]pyridin-6-yl]ethyl}-9H-purin-6-amine]: the values for the IC50 (at PI3Kδ (p110δ/p85α); in assay [1]) were less than 50 nM and not above 100 nM, respectively.

Consider `Cc1ncc2c(Cl)cc(C(C)Nc3ncnc4[nH]cnc34)c(-c3cc(F)cc(F)c3)n12` (centres unmarked) [Example 19, N-{1-[8-Chloro-5-(3,5-difluorophenyl)-3-methylimidazo[1,5-a]pyridin-6-yl]ethyl}-9H-purin-6-amine], for which the IC50 against PI3Kδ (p110δ/p85α) was less than 50 nM; in assay [1], not above 100 nM.

As to `CC(Nc1ncnc2[nH]cnc12)c1cc(Cl)c2cncn2c1N1CCN(C(=O)CC#N)CC1` (centres unmarked) [Example 10, 3-(4-{8-Chloro-6-[1-(9H-purin-6-ylamino)ethyl]imidazo[1,5-a]pyridin-5-yl}piperazin-1-yl)-3-oxopropanenitrile], the IC50 was less than 50 nM at PI3Kδ (p110δ/p85α) and more than 3000 nM in assay [1].

With `CCC(Nc1ncnc2[nH]cnc12)c1cc(Cl)c2cnc(C)n2c1-c1cc(F)cc(F)c1` (centres unmarked) [Example 20, N-{1-[8-Chloro-5-(3,5-difluorophenyl)-3-methylimidazo[1,5-a]pyridin-6-yl]propyl}-9H-purin-6-amine], the half-maximal inhibitory concentration (IC50) against PI3Kδ (p110δ/p85α) is less than 50 nM; in assay [1] it was 100 to 500 nM.

Consider `CCC(Nc1ncnc2[nH]cnc12)c1cc(Cl)c2cncn2c1-c1cccc(F)c1` (centres unmarked) [Example 18, N-{1-[8-Chloro-5-(3-fluorophenyl)imidazo[1,5-a]pyridin-6-yl]propyl}-9H-purin-6-amine], for which the results for the IC50 (at PI3Kδ (p110δ/p85α); in assay [1]) were less than 50 nM and 100 to 500 nM, respectively.

With `COCCN1CCN(c2c(C(C)Nc3ncnc4[nH]cnc34)cc(Cl)c3cncn23)CC1` (centres unmarked) [Example 12, N-(1-{8-Chloro-5-[4-(2-methoxyethyl)piperazin-1-yl]imidazo[1,5-a]pyridin-6-yl}ethyl)-9H-purin-6-amine], the IC50 was 200 to 750 nM against PI3Kδ (p110δ/p85α) and 100 to 500 nM in assay [1].

As for `CC(=O)N1CCN(c2c(C(C)Nc3ncnc4[nH]cnc34)cc(Br)c3cncn23)CC1` (centres unmarked) [Example 30, N-{1-[5-(4-Acetylpiperazin-1-yl)-8-bromoimidazo[1,5-a]pyridin-6-yl]ethyl}-9H-purin-6-amine bis(trifluoroacetate)], the IC50 was less than 50 nM against PI3Kδ (p110δ/p85α) and 100 to 500 nM in assay [1].

Take `COCC(=O)N1CCN(c2c(C(C)Nc3ncnc4[nH]cnc34)cc(Cl)c3cncn23)CC1` (centres unmarked) [Example 8, N-(1-{8-chloro-5-[4-(methoxyacetyl)piperazin-1-yl]imidazo[1,5-a]pyridin-6-yl}ethyl)-9H-purin-6-amine]: the half-maximal inhibitory concentration (IC50) is less than 50 nM at PI3Kδ (p110δ/p85α) and more than 3000 nM in assay [1].

Regarding `CC(=O)N1CCN(c2c(C(C)Nc3ncnc4[nH]cnc34)cc(Cl)c3cncn23)CC1` (centres unmarked) [Example 4, N-{1-[5-(4-Acetylpiperazin-1-yl)-8-chloroimidazo[1,5-a]pyridin-6-yl]ethyl}-9H-purin-6-amine], the IC50 on PI3Kδ (p110δ/p85α) was less than 50 nM; in assay [1] it was 500 to 1000 nM.

For `CC(Nc1ncnc2[nH]cnc12)c1cc(Cl)c2cncn2c1N1CCN(S(C)(=O)=O)CC1` (centres unmarked) [Example 5, N-(1-{8-chloro-5-[4-(methylsulfonyl)piperazin-1-yl]imidazo[1,5-a]pyridin-6-yl}ethyl)-9H-purin-6-amine], the IC50 was 50 to 200 nM against PI3Kδ (p110δ/p85α) and more than 3000 nM in assay [1].

Consider `CO[C@@H]1CCN(c2c(C(C)Nc3ncnc4[nH]cnc34)cc(Cl)c3cncn23)C1` (stereo partly drawn) [Example 21, N-(1-{8-Chloro-5-[(3R)-3-methoxypyrrolidin-1-yl]imidazo[1,5-a]pyridin-6-yl}ethyl)-9H-purin-6-amine], for which the half-maximal inhibitory concentration (IC50) at PI3Kδ (p110δ/p85α) was less than 50 nM; in assay [1], not above 100 nM.

Consider `CC(Nc1ncnc2[nH]cnc12)c1cc(Cl)c2cncn2c1-c1cccc(F)c1` (single isomer, unassigned) [1, isomer 2], for which the IC50 at PI3Kδ (p110δ/p85α) is 50 to 200 nM.

For the compound `CC(Nc1ncnc2[nH]cnc12)c1cc(Cl)c2cncn2c1N1CC[C@@H](O)C1` (stereo partly drawn) [Example 23, (3R)-1-{8-Chloro-6-[1-(9H-purin-6-ylamino)ethyl]imidazo[1,5-a]pyridin-5-yl}pyrrolidin-3-ol], the figures for the IC50 (against PI3Kδ (p110δ/p85α); in assay [1]) were 50 to 200 nM and not above 100 nM, respectively.

Compound `Cc1ncc2c(Cl)cc(C(C)Nc3ncnc4[nH]cnc34)c(-c3cccc(F)c3)n12` (racemic) [Example 2, N-{1-[8-Chloro-5-(3-fluorophenyl)-3-methylimidazo[1,5-a]pyridin-6-yl]ethyl}-9H-purin-6-amine] showed a concentration for half-maximal inhibition (IC50) against PI3Kδ (p110δ/p85α) of less than 50 nM.
